These results are taken from BindingDB's records for doi:10.1016/j.bmcl.2014.05.074 (Seoul National University, 2014).

One may read the Ki as the equilibrium dissociation constant of an inhibitor or competing ligand from its target.

The target of this assay is Transient receptor potential cation channel subfamily V member 1 (Homo sapiens, UniProt Q8NER1). Put plainly: Antagonist activity at human TRPV1 expressed in CHO cells assessed as inhibition of capsaicin-induced increase in intracellular Ca2+ level by FLIPR assay.
Sequence of Transient receptor potential cation channel subfamily V member 1 (Q8NER1 whole entry): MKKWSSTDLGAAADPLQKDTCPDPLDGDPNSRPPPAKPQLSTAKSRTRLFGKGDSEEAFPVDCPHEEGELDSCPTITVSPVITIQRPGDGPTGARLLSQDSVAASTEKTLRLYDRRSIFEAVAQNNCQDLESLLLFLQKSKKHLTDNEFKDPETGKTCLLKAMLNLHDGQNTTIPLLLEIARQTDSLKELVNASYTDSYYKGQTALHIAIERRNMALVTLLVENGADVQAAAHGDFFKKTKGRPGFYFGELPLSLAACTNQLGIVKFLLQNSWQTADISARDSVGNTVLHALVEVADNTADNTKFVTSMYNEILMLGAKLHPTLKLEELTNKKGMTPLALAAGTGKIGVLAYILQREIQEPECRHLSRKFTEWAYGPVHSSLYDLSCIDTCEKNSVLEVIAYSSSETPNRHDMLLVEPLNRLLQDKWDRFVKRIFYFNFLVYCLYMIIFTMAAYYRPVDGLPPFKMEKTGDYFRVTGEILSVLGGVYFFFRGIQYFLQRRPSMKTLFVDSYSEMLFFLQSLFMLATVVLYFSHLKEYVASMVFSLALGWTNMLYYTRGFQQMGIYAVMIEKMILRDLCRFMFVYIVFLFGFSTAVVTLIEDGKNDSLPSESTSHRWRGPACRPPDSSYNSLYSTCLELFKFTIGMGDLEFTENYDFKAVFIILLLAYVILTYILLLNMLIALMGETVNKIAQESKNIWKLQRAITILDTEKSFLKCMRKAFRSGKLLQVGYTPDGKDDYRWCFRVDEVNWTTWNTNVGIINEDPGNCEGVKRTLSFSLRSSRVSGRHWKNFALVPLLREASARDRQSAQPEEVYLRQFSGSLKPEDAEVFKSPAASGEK
As to `CC(C(=O)NCc1ccc(C(F)(F)F)nc1C1=C[C@H](C)CCC1)c1ccc(NS(C)(=O)=O)c(F)c1` (stereo partly drawn), the Ki stood at 0.1 nM.

As to `CC1CC=C(c2nc(C(F)(F)F)ccc2CNC(=O)C(C)c2ccc(NS(C)(=O)=O)c(F)c2)CC1` (stereo not drawn), the Ki was 0.3 nM.

Consider `CCC1CC=C(c2nc(C(F)(F)F)ccc2CNC(=O)C(C)c2ccc(NS(C)(=O)=O)c(F)c2)CC1` (stereo not drawn), for which the inhibition constant Ki turned out to be 0.1 nM.
